In patent US20100273748A1, “ANTIMICROBIAL THERAPY” (priority 2006, published 2010):

Legend:
[1] = test system: Group B Strep (GBS); assay: Bacterial growth inhibition with or without NaHCO3; type: cell-based; details: 16 uM CRAMP without NaHCO3
[2] = test system: Salmonella; assay: Bacterial growth inhibition with or without NaHCO3; type: cell-based; details: 16 uM CRAMP without NaHCO3
[3] = test system: E. coli; assay: Bacterial growth inhibition with or without NaHCO3; type: cell-based
[4] = test system: Staphylococcus aureus; assay: Bacterial growth inhibition (turbidity OD600) with or without carbonate; type: cell-based
[5] = test system: antigen presentation; assay: Antigen presentation in vitro; type: cell-based
[6] = test system: acetylated histone H4; assay: Histone H4 acetylation in keratinocytes (immunofluorescence, Western blot); type: cell-based, human; details: NHEK stimulated with butyrate or TLR ligand
Experimental: Panel a; Immunofluorescence staining of acetylated histone H4 protein in NHEK treated with HDACi in the presence or absence of 1,25D3. […] Panel b: Western blot of acetylated histone 4 from keratinocytes treated with the HDACi butyrate or TLR agonists. […] Bar=30 μM.
The abundance of acetylated histone was directly measured to confirm the inhibitory effects of butyrate and TSA on HDACs. […] To determine if changes in histone acetylation occur upon stimulation of keratinocytes with TLR ligands NHEK were stimulated with different TLR ligands and histone acetylation was assessed.

[7] = test system: cathelicidin; assay: qPCR of cathelicidin mRNA in cultured keratinocytes; type: cell-based, human
Experimental: Cell culture and stimuli. Human keratinocytes were grown in serum-free EpiLife® cell culture media (Cascade Biologics; Portland, Oreg.) containing 0.06 mM Ca2+ and 1× EpiLife® defined growth supplement (EDGS) at 37° C. under standard tissue culture conditions. Stock cultures were maintained for up to five passages in this media with the addition of 50 U/mL penicillin and 50 μg/mL streptomycin. HaCaT keratinocytes were cultured in DMEM (Sigma, St. Louis, Mo.) with 10% FCS. Cells at 50-70% confluence were stimulated in fresh medium after preincubation with 1,25(OH)2 vitamin D3 (1,25D3; 0.1-100 nM, 4-24 h; Sigma). Alternatively, NHEK were stimulated in the presence of 1,25D3 (0.1-100 nM). Stimuli included TLR2,6 ligands Malp-2 (0.001-0.5 μg/ml; Alexis Biochemicals, Carlsbad, Calif.), FSL-1 (1-2 μg/ml, Invivogen, San Diego, Calif.) and zymosan (50 μg/ml; Invivogen), as well as flagellin (50 ng/ml; Alexis), LPS (1 μg/ml; Sigma), lipoteichoic acid (LTA; 10 μg/ml; Sigma), 19 kDA lipopeptide (10 μg/ml, a kind gift from S. Krutzik, Division of Dermatology, UCLA), CpG DNA (10 μg/ml; Sigma), Ca2+ (1.7 mM), LPS (1 μg/ml; Sigma), TNFα (20 ng/ml; Chemicon Temecula, Calif.) and TGFβ1 (0.1-1 μg/ml; R&D Systems, Minneapolis, Minn.). A TLR2 blocking antibody (αTLR2; clone TL2.1, 5 μg/ml, eBioscience, San Diego, Calif.) was utilized to investigate the role of TLR2 signaling. Furthermore, keratinocytes were pretreated with a vitamin D receptor antagonist (VDR-antagonist ZK159222 Schering AG; 10^-7M) or the CYP inhibitor itraconazole (ITRA; 10^-7M) before stimulation with TGFβ in the presence of 25OH vitamin D3 (25D3, 10 nM, Sigma).
Real-time RT-PCR (qPCR). RNA was extracted from cells, epidermal constructs or tissue using Trizol® and 1 μg RNA was reverse transcribed using iScript® (BioRad, Hercules, Calif.). Expression of cathelicidin and GAPDH was analysed by real-time RT-PCR. Predeveloped Taqman® assay probes (ABI, Foster City, Calif.) were used for the analyses of the expression of CYP24A1 (24-hydroxylase), CYP27B1 (1α-hydroxylase), CD14, CD36, TLR1, TLR2, TLR4, TLR6 and murine CD14. All analyses were performed in triplicate from 2-5 independent experiments in an ABI Prism® 7000 Sequence Detection System. Fold induction relative to the vehicle treated control in in vitro experiments was calculated using the comparative Ct method, where ΔΔCt is ΔCt(stimulant)-ΔCt(vehicle), ΔCt is Ct(gene)-Ct(GAPDH) and Ct is the cycle at which an arbitrary detection threshold is crossed. For quantification of transcript abundance in tissue samples target gene expression was normalized to GAPDH and compared to non-treated or non-injured skin.

[8] = test system: cathelicidin promoter; assay: Cathelicidin (CAMP) promoter luciferase reporter in HaCat keratinocytes; type: cell-based, human
Excerpt: Promoter analysis and site directed mutagenesis. […]. Primers were designed to introduce an NheI restriction site at the 5″end and an XhoI restriction site at the 3″end of the amplicon. The amplification product was cloned into the TOPO vector (Invitrogen) and transformed into E. coli TOP10 OneShot competent cells (Invitrogen). After DNA purification using the WizardPLus, SV Miniprep purification system (Promega, Madison, Wis.) the construct was digested with NheI and XhoI and then subcloned into the promoterless pGL3-basic firefly luciferase vector (Promega). […]. The resulting plasmid lacking the VDRE binding site cloned in the pGL3-basic vector was termed pGL-3 1500-VDRE. All resulting constructs were confirmed by sequencing. For transfection HaCat cells were seeded in 24 well plates (BD Biosciences) and used for transfection at 50 to 70% confluence. Cells were transfected with the indicated CAMP reporter plasmids and 0.1 μg of an internal-control Renilla luciferase expression plasmid (pRL-TK; Promega, Madison, Wis.) by using 1.5 μl of transfection reagent Fugene 6 (Roche) according to the manufacturer's instructions. […] Firefly luciferase activity from the CAMP pGL3 reporter vectors and Renilla luciferase activity were measured by the Dual Luciferase Assay system (Promega) in a luminometer (Optocomp I, MGM Instruments, Hamden, Conn.). […]

[9] = test system: cathelicidin; assay: Cathelicidin peptide immunostaining in organotypic epidermal constructs; type: cell-based, human
Excerpt: Organotypic culture. Epiderm™ human skin-like tissue constructs were obtained from MatTek (Ashland, Mass.) and cultured according to manufacturer's instructions. […] Skin constructs were cut after stimulation and transferred to Trizol® (Invitrogen, Carlsbad, Calif.) for RNA extraction or immediately frozen in Tissue-Tek® (Sakura, Torrance, Calif.) for immunostaining.
Immunostaining. After fixation in 2% PFA and subsequent washings in PBS, sections from skin tissue or epidermal constructs were blocked in 3% BSA in PBS for 30 min at RT and stained with anti-cathelicidin LL-37 primary antibody or preimmune serum. After washings in PBS, slides from epidermal constructs were re-probed with a FITC labeled goat anti-chicken antibody. Nuclei were detected with DAPI. After subsequent washings with PBS slides, were mounted in ProLong Anti-Fade reagent (Molecular Probes, Eugene, Oreg.) and evaluated with an Olympus BX41 microscope (Olympus, Melville, N.Y.). Paraffin embedded formalin fixed tissue sections were rehydrated in a series of toluene, ethanol, and PBS. Endogenous peroxidase activity was quenched by 30 min incubation in 0.3% H2O2 in water, and sections microwaved for 4 min in antigen retrieval solution (0.01M citric acid, 0.05M

[10] = test system: CYP27B1; assay: qPCR of CYP27B1 mRNA in cultured keratinocytes; type: cell-based, human; details: 24 hours, TGF 1 μg/ml, TNFα 20 ng/ml, TLR2 ligand Malp-2
Experimental: (§1) Cell culture and stimuli. Human keratinocytes were grown in serum-free EpiLife® cell culture media (Cascade Biologics; Portland, Oreg.) containing 0.06 mM Ca2+ and 1× EpiLife® defined growth supplement (EDGS) at 37° C. under standard tissue culture conditions. Stock cultures were maintained for up to five passages in this media with the addition of 50 U/mL penicillin and 50 μg/mL streptomycin. HaCaT keratinocytes were cultured in DMEM (Sigma, St. Louis, Mo.) with 10% FCS. Cells at 50-70% confluence were stimulated in fresh medium after preincubation with 1,25(OH)2 vitamin D3 (1,25D3; 0.1-100 nM, 4-24 h; Sigma). Alternatively, NHEK were stimulated in the presence of 1,25D3 (0.1-100 nM). […]
(§2) Real-time RT-PCR (qPCR). […] Expression of cathelicidin and GAPDH was analysed by real-time RT-PCR. […] Fold induction relative to the vehicle treated control in in vitro experiments was calculated using the comparative Ct method, where ΔΔCt is ΔCt(stimulant)-ΔCt(vehicle), ΔCt is Ct(gene)-Ct(GAPDH) and Ct is the cycle at which an arbitrary detection threshold is crossed. For quantification of transcript abundance in tissue samples target gene expression was normalized to GAPDH and compared to non-treated or non-injured skin.

[11] = test system: IL-8; assay: qPCR of IL-8 transcript in cultured keratinocytes; type: cell-based, human; details: Malp-2 (0.1 μg ml^−1) only
Experimental: as §1, §2

[12] = test system: wild-type S. aureus (clinical isolate); assay: Radial diffusion assay; type: cell-based
[13] = test system: Group A Streptococcus (NZ131)
Experimental: Solution killing was done in 10% TSB in 10 mM PB (TSB=30 gm/L Tryptic Soy Broth, Sigma, St Louis Mo.; 20×PB=27.6 g/L NaH2PO4-H2O, 53.65 g/L Na2HPO4-7H2O, pH 7.4). Bacteria in log-phase growth were suspended to 1×10^6 cells/ml, peptide added and incubated at 37° C. for 2 hr. Bacteria were then plated on TSB agar (TSB, Bactoagar 13 g/L, Becton Dickinson, Sparks Md.) for direct colony count and determination of CFU.
Activity against Group A Streptococcus (NZ131) was done only in solution assay as described.

[14] = test system: enteroinvasive E. coli 029; assay: Radial diffusion assay; type: cell-based
[15] = test system: Staphylococcus aureus mprF; assay: Radial diffusion assay; type: cell-based
Experimental: Sweat collection and processing. Sweat was collected on paper tissues (Kimwipes, Kimberly-Clark, Ga.) from healthy volunteers after exercise. After collection, 20 ml of sweat was centrifuged at 2000 g for 15 min. at 4° C., filtered through a […] (Acrodisc syringe filter, 0.2 mm, low protein binding, Fisher scientific, Tustin, Calif.), and frozen at −80° C. For some experiments sweat was lyophilized to dryness, then suspended in 400 μl of distilled water (DW: cell culture grade, endotoxin free, GibcoBRL, Grand island, NY). For analysis of LL37 processing by sweat, 1.6 nmol of LL-37 synthetic peptide was incubated in 50 ml of sweat for 0, 1, 6, 24 hrs at 37° C. or 4° C. In some experiments proteinase inhibitors including; mixed protease inhibitor cocktail (1tab/10 ml, Roche, Indianapolis, Ind.), […] Bestatin, 10 mg/ml E-64, 10 mg/ml Aprotinin, (Sigma, St Louis, Mo.); 100 mM AEBSF, 100 mM Neutrophil elastase inhibitor (NEI) or 100 mM leukocyte elastase inhibitor (LEI) (Calbiochem, San Diego, Calif.) were added during incubation. After incubation, 2 ml was assayed by radial diffusion assay to determine antibacterial activity. For analysis by HPLC 32 nmoles LL-37 was incubated in 100u1. To control for potential contamination from paper tissues, parallel processing was done on tissues soaked in phosphate-buffered saline (PBS:137 mM NaCl, 2.7 mM KCL, 4.3 mM Na2HPO4-H2O, 1.4 mM KH2PO4, pH 7.4). No antimicrobial activity was detectable in these preparations. Protein concentrations were evaluated by BCA assay (protein assay reagent, Pierce, Rockford, Ill.) or Bradford protein assay (Bio-Rad, Hercules, Calif.) according to manufacture's instructions. Human tissue and blood collection was approved by the UCSD Human Research Protection Program.
Antimicrobial assays. For screening of antimicrobial activity of HPLC fractions, radial diffusion assay was used. Lyophilized HPLC fractions were dissolved in DW (GibcoBRL, Grand Island, N.Y.), and tested against Staphylococcus aureus mprF. Thin plates (1 mm) of 1% agarose in 0.5% tryptone containing approximately 1×10^6 cells/ml of S. aureus mprF were used. 1 mm wells were punched in the plates and […] of samples dissolved in tissue culture grade sterile water were loaded in each well.

[16] = test system: C. albicans; assay: Liquid assay, minimum fungicide concentration; type: cell-based, Candida albicans
Experimental: Action against the C. albicans was determined in Dixon medium (0.6% Peptone, 4% Malt Extract, 1% Glucose, 0.1% Ox Bile, 1% Tween-80) in sterile 96-well microtiter plates (Corning Inc., Corning, N.Y.) at a final volume of 50 ml. […] Microtiter plates were incubated at 37° C. for 24 h with peptides, then plated on Dixon agar to determine the MFC (minimum fungicide concentration).

[17] = 16 uM CRAMP without 50 mM NaHCO3

Which susceptibility to peptide [1] does the source give for CRAMP here?
The susceptibility to peptide was “susceptible even without NaHCO3”.

What about the susceptibility to peptide [2] of the same substance?
The susceptibility to peptide was “susceptible even without NaHCO3”.

What about the susceptibility to peptide ([3]; 16 uM CRAMP with 50 mM NaHCO3) of the same substance?
Its susceptibility to peptide is “became susceptible”.

What about the susceptibility to peptide [3, 17] of the same substance?
The susceptibility to peptide was “resistant”.

And the susceptibility to peptide ([4]; 16 uM CRAMP with 50 mM NaHCO3)?
The susceptibility to peptide was “became susceptible”.

And the susceptibility to peptide [4, 17]?
Its susceptibility to peptide is “resistant”.

What about the “change of minimal inhibitory concentration (MIC) by NaHCO3” value ([4]; 20% TSB, 1 mM NaH2PO4, with or without 50 mM NaHCO3, pH 7.4) of the same substance?
The value was “greatly reduced”.

What about the “antigen presentation in vitro” value [5] of the same substance?
The value was “inhibits antigen presentation in vitro”.

Which results are given for Malp-2?
acetylation of histone H4 [6]: also increased histone acetylation; cathelicidin transcript abundance ([7]; Malp-2 (0.1 μg ml^−1) alone): has no effect; cathelicidin response to Malp-2 ([7]; keratinocyte monolayers in high calcium (1.7 mM), no 1,25D3): did not respond to TLR2,6 activation by Malp-2; cathelicidin expression in response to TLR ligand ([7]; keratinocytes pretreated with 1,25D3 0.1 nM 24 hours, then TLR ligand 24 hours): responded to Malp-2; cathelicidin promoter activity ([8]; Malp-2 0.1 μg/ml in the presence of 1,25D3 (100 nM), construct including the VDRE): responsive to Malp-2; cathelicidin promoter activity ([8]; absence of 1,25D3 or the VDRE): no significant effect; cathelicidin peptide response to Malp-2 ([9]; Malp-2 0.1 μg/ml with 1,25D3 (100 nM)): did after its addition; cathelicidin peptide response to Malp-2 ([9]; Malp-2 0.1 μg/ml, absence of 1,25D3): did not respond to Malp-2 in the absence of 1,25D3; CYP27B1 expression [10]: could be induced; IL-8 expression [11]: increased when stimulated with only Malp-2

“SSLLEKGLDGAKKAVGGLGKLGKDAVEDLESVGKGAVHDVKDVLDSV [DCD, dermcidin antimicrobial peptide of human sweat]” was tested. Which “Radial Diffusion Assay, minimal inhibitory concentration (MIC), S. aureus (wt)” value [12] did it give?
The value was 4 μm.

What about the “Liquid Assay, minimal concentration required to kill GAS (NZ131)” value [13] of the same substance?
Its value is 4 μm.

What about the “Radial Diffusion Assay, minimal inhibitory concentration (MIC), E. coli (O29))” value [14] of the same substance?
Its value is 4 μm.

What about the “Radial Diffusion Assay, minimal inhibitory concentration (MIC), S. aureus mprF (head printed truncated: aureus cF)” value [15] of the same substance?
The value was 4 μm.

What about the “Liquid Assay, minimal concentration required to kill C. albicans ATCC 14053 (head printed truncated: albicans CC 14053)” value [16] of the same substance?
Its value is 7 μm.
